Measurements as given in patent US12692235B2, “Fused ring compound and application thereof” (WUHAN LL SCIENCE AND TECHNOLOGY DEVELOPMENT CO., LTD., priority 2019, dated 2026).

Target: T1, hP2X4 (human purinergic P2X receptor subtype 4) (Homo sapiens, UniProt Q99571)
T1 sequence (Q99571 1-404 isoform Q99571-2): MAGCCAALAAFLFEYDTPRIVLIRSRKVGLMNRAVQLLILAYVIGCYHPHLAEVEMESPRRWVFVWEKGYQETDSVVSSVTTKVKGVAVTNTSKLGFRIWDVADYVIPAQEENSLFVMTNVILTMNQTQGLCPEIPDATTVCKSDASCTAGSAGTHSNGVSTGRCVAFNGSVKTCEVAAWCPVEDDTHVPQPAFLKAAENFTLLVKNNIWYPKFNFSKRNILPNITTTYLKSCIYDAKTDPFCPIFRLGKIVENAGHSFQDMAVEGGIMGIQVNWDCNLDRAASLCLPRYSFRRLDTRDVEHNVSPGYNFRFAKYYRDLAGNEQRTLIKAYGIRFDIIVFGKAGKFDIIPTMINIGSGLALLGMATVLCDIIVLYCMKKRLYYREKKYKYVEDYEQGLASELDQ
Details: P2X4 IC50 (nM), HEK293 cells stably expressing hP2X4; agonist BZ-ATP 2.5 μM; FLIPR calcium
Experimental: Cells at 400,000 cells/mL were seeded into a 384-well plate (10,000 cells/well) 18-24 h prior to the FLIPR experiment and then incubated overnight in a cell incubator. […] Each well was added with 20 μL of 0.5×Calcium 6 fluorescent dye (Molecular Devices, R8190) and then the cells were subjected to dye-loading incubation at 37° C. for 1.5 h. Each well was added with 10 μL of respective test compound (dissolved in DMSO at a concentration of 10 mM and serially diluted with buffer) or vehicle and the mixture was equilibrated for 30 min at room temperature.

Row | SMILES | IC50
1 | NS(=O)(=O)c1cc(NC(=O)Cc2ccccc2Cl)cc2cnc(-n3ccnc3)cc12 [Compound 22, N-(3-(1H-imidazol-1-yl)-5-sulfamoylisoquinolin-7-yl)-2-(2-chlorophenyl)acetamide] | 10 to 50 nM
2 | NS(=O)(=O)c1cc(NC(=O)Cc2ccccc2Cl)cc2c(C3CC3)nccc12 [Compound 23, 2-(2-chlorophenyl)-N-(1-cyclopropyl-5-sulfamoylisoquinolin-7-yl)acetamide] | < 10 nM
3 | COc1nccc2c(S(N)(=O)=O)cc(NC(=O)Cc3c(F)cccc3Cl)cc12 [Compound 26, 2-(2-chloro-6-fluorophenyl)-N-(1-methoxy-5-sulfamoylisoquinolin-7-yl)acetamide] | < 10 nM
4 | COc1nccc2c(S(N)(=O)=O)cc(NC(=O)Cc3cc(F)c(F)cc3Cl)cc12 [Compound 27, 2-(2-chloro-4,5-difluorophenyl)-N-(1-methoxy-5-sulfamoylisoquinolin-7-yl)acetamide] | < 10 nM
5 | NS(=O)(=O)c1cc(NC(=O)Cc2ccccc2Cl)cc2c(OC(F)F)nccc12 [Compound 28, 2-(2-chlorophenyl)-N-(1-(difluoromethoxy)-5-sulfamoylisoquinolin-7-yl)acetamide] | < 10 nM
6 | NS(=O)(=O)c1cc(NC(=O)Cc2ccccc2Cl)cc2c(Oc3ccccc3)nccc12 [Compound 30, 2-(2-chlorophenyl)-N-(1-phenoxy-5-sulfamoylisoquinolin-7-yl)acetamide] | 10 to 50 nM
7 | NS(=O)(=O)c1cc(NC(=O)Cc2ccccc2Cl)cc2c(Oc3ccc(F)cc3)nccc12 [Compound 31, 2-(2-chlorophenyl)-N-(1-(4-fluorophenoxy)-5-sulfamoylisoquinolin-7-yl)acetamide] | 10 to 50 nM
8 | NS(=O)(=O)c1cc(NC(=O)Cc2ccccc2Cl)cc2c(OCc3ccc(F)cc3)nccc12 [Compound 32, 2-(2-chlorophenyl)-N-(1-((4-fluorobenzyl)oxo)-5-sulfamoylisoquinolin-7-yl)acetamide] | 10 to 50 nM
9 | CC(=O)N1CC(Oc2nccc3c(S(N)(=O)=O)cc(NC(=O)Cc4ccccc4Cl)cc23)C1 [Compound 33, N-(1-((1-acetylazetidin-3-yl)oxo)-5-sulfamoylisoquinolin-7-yl)-2-(2-chlorophenyl)acetamide] | 10 to 50 nM
10 | Cc1ccc(Oc2nccc3c(S(N)(=O)=O)cc(NC(=O)Cc4ccccc4Cl)cc23)cc1 [Compound 34, 2-(2-chlorophenyl)-N-(5-sulfamoyl-1-(p-tolyloxy)isoquinolin-7-yl)acetamide] | 10 to 50 nM
11 | COc1ccc(Oc2nccc3c(S(N)(=O)=O)cc(NC(=O)Cc4ccccc4Cl)cc23)cc1 [Compound 35, 2-(2-chlorophenyl)-N-(1-(4-methoxyphenoxy)-5-sulfamoylisoquinolin-7-yl)acetamide] | 10 to 50 nM
12 | Nc1ncc2c(S(N)(=O)=O)cc(NC(=O)Cc3ccccc3Cl)cc2n1 [Compound 39, N-(2-amino-5-sulfamoylquinazolin-7-yl)-2-(2-chlorophenyl)acetamide] | 200 to 5000 nM
13 | NS(=O)(=O)c1cc(NC(=O)Cc2ccccc2Cl)cc2c(=O)[nH]ccc12 [Compound 43, 2-(2-chlorophenyl)-N-(1-oxo-5-sulfamoyl-1,2-dihydroisoquinolin-7-yl)acetamide] | 200 to 5000 nM
14 | COC(=O)N1CCCc2c1cc(NC(=O)Cc1ccccc1Cl)cc2S(N)(=O)=O [Compound 46, methyl 7-(2-(2-chlorophenyl)acetamido)-5-sulfamoyl-3,4-dihydroquinoline-1(2H)-carboxylate] | 200 to 5000 nM
15 | NS(=O)(=O)c1cc(NC(=O)Cc2ccccc2Cl)cc2nc(-n3cccn3)ccc12 [Compound 49, N-(2-(1H-pyrazol-1-yl)-5-sulfamoylquinolin-7-yl)-2-(2-chlorophenyl)acetamide] | 50 to 200 nM
16 | NS(=O)(=O)c1cc(NC(=O)Cc2ccccc2Cl)cc2cc(-n3ccnc3)ncc12 [Compound 50, N-(3-(1H-imidazol-1-yl)-8-sulfamoylisoquinolin-6-yl)-2-(2-chlorophenyl)acetamide] | 200 to 5000 nM
17 | NS(=O)(=O)c1cc(NC(=O)Cc2ccccc2Cl)cc2c(Nc3ccc(F)cc3)nccc12 [Compound 52, 2-(2-chlorophenyl)-N-(1-((4-fluorophenyl)amino)-5-sulfamoylisoquinolin-7-yl)acetamide] | 200 to 5000 nM
18 | COc1nccc2c(S(C)(=N)=O)cc(NC(=O)Cc3ccccc3Cl)cc12 (centres unmarked) [Compound 53, 2-(2-chlorophenyl)-N-(1-methoxy-5-(S-methylsulfonimidoyl)isoquinolin-7-yl)acetamide] | 200 to 5000 nM
19 | COc1nccc2c(S(N)(=O)=O)cc(NC(=O)Cc3c(Cl)ccc(F)c3F)cc12 [Compound 54, 2-(6-chloro-2,3-difluorophenyl)-N-(1-methoxy-5-sulfamoylisoquinolin-7-yl)acetamide] | 200 to 5000 nM
20 | NS(=O)(=O)c1cc(NC(=O)Cc2ccccc2Cl)cc2c(OC(F)(F)F)nccc12 [Compound 60, 2-(2-chlorophenyl)-N-(5-sulfamoyl-1-(trifluoromethoxy)isoquinolin-7-yl)acetamide] | 50 to 200 nM
21 | COc1nccc2c(S(N)(=O)=O)cc(NC(=O)Cc3c(O)cccc3Cl)cc12 [Compound 62, 2-(2-chloro-6-hydroxyphenyl)-N-(1-methoxy-5-sulfamoylisoquinolin-7-yl)acetamide] | 200 to 5000 nM
22 | COc1nccc2c(S(N)(=O)=O)cc(NC(=O)Cc3c(Cl)ccc(F)c3O)cc12 [Compound 63, 2-(6-chloro-3-fluoro-2-hydroxyphenyl)-N-(1-methoxy-5-sulfamoylisoquinolin-7-yl)acetamide] | 200 to 5000 nM

Results, then the compound that gave them:

Row | IC50 | SMILES
23 | < 10 nM | CC(C)c1nccc2c(S(N)(=O)=O)cc(NC(=O)Cc3ccccc3Cl)cc12 [Compound 24, 2-(2-chlorophenyl)-N-(1-isopropyl-5-sulfamoylisoquinolin-7-yl)acetamide]
24 | < 10 nM | NS(=O)(=O)c1cc(NC(=O)Cc2ccccc2Cl)cc2c(C(F)F)nccc12 [Compound 25, 2-(2-chlorophenyl)-N-(1-(difluoromethyl)-5-sulfamoylisoquinolin-7-yl)acetamide]
25 | 10 to 50 nM | NS(=O)(=O)c1cc(NC(=O)Cc2ccccc2Cl)cc2c(C(F)(F)F)nccc12 [Compound 29, 2-(2-chlorophenyl)-N-(-5-sulfamoyl-1-(trifluoromethyl)isoquinolin-7-yl)acetamide]
26 | 10 to 50 nM | NS(=O)(=O)c1cc(NC(=O)Cc2ccccc2Cl)cc2cccnc12 [Compound 37, 2-(2-chlorophenyl)-N-(8-sulfamoylquinolin-6-yl)acetamide]
27 | 50 to 200 nM | NS(=O)(=O)c1cc(NC(=O)Cc2ccccc2Cl)cc2ccc(F)nc12 [Compound 38, 2-(2-chlorophenyl)-N-(2-fluoro-8-sulfamoylquinolin-6-yl)acetamide]
28 | 50 to 200 nM | NS(=O)(=O)c1cc(NC(=O)Cc2ccccc2Cl)cc2cncnc12 [Compound 40, 2-(2-chlorophenyl)-N-(8-sulfamoylquinazolin-6-yl)acetamide]
29 | 50 to 200 nM | NS(=O)(=O)c1cc(NC(=O)Cc2ccccc2Cl)cc2ccnnc12 [Compound 41, 2-(2-chlorophenyl)-N-(8-sulfamoylcinnolin-6-yl)acetamide]
30 | 10 to 50 nM | N#Cc1ccc2cc(NC(=O)Cc3ccccc3Cl)cc(S(N)(=O)=O)c2c1 [Compound 42, 2-(2-chlorophenyl)-N-(6-cyano-4-sulfamoylnaphthalen-2-yl)acetamide]
31 | 200 to 5000 nM | N#Cc1nccc2c(S(N)(=O)=O)cc(NC(=O)Cc3ccccc3Cl)cc12 [Compound 44, 2-(2-chlorophenyl)-N-(1-cyano-5-sulfamoylisoquinolin-7-yl)acetamide]
32 | 50 to 200 nM | NS(=O)(=O)c1cc(NC(=O)Cc2ccccc2Cl)cc2ccncc12 [Compound 45, 2-(2-chlorophenyl)-N-(8-sulfamoylisoquinolin-6-yl)acetamide]
33 | 50 to 200 nM | NS(=O)(=O)c1cc(NC(=O)Cc2ccccc2Cl)cc2c(F)cncc12 [Compound 47, 2-(2-chlorophenyl)-N-(4-fluoro-8-sulfamoylisoquinolin-6-yl)acetamide]
34 | 200 to 5000 nM | NS(=O)(=O)c1cc(NC(=O)Cc2ccccc2Cl)cc2c(Cl)cncc12 [Compound 48, N-(4-chloro-8-sulfamoylisoquinolin-6-yl)-2-(2-chlorophenyl)acetamide]
35 | 200 to 5000 nM | Nc1nccc2c(S(N)(=O)=O)cc(NC(=O)Cc3ccccc3Cl)cc12 [Compound 51, N-(1-amino-5-sulfamoylisoquinolin-7-yl)-2-(2-chlorophenyl)acetamide]
36 | 50 to 200 nM | Cc1nccc2c(S(N)(=O)=O)cc(NC(=O)Cc3ccccc3Cl)cc12 [Compound 55]
37 | 50 to 200 nM | NS(=O)(=O)c1cc(NC(=O)Cc2ccccc2Cl)cc2c(CF)nccc12 [Compound 56]
38 | 50 to 200 nM | NS(=O)(=O)c1cc(NC(=O)Cc2ccccc2Cl)cc2nc(Cl)ccc12 [Compound 57]
39 | 50 to 200 nM | COc1ccc2c(S(N)(=O)=O)cc(NC(=O)Cc3ccccc3Cl)cc2n1 [Compound 58, 2-(2-chlorophenyl)-N-(2-methoxy-5-sulfamoylquinolin-7-yl)acetamide]
40 | 50 to 200 nM | NS(=O)(=O)c1cc(NC(=O)Cc2ccccc2Cl)cc2cc(Cl)ncc12 [Compound 59, N-(3-chloro-8-sulfamoylisoquinolin-6-yl)-2-(2-chlorophenyl)acetamide]
41 | 50 to 200 nM | NS(=O)(=O)c1cc(NC(=O)Cc2ccccc2Cl)cc2c(OCF)nccc12 [Compound 61, 2-(2-chlorophenyl)-N-(1-(fluoromethoxy)-5-sulfamoylisoquinolin-7-yl)acetamide]
